Measurements reported in ChEMBL document CHEMBL5120927, “LEGO-Lipophosphonoxins: A Novel Approach in Designing Membrane Targeting Antimicrobials” (J Med Chem, 2022).

How the values were obtained:
Staphylococcus aureus [1] = test: Antibacterial activity against Staphylococcus aureus ATCC 29213 = CCM 4223 assessed as inhibition of bacterial growth incubated for 24 hrs by microdilution assay; type: functional
Escherichia coli [2] = test: Antibacterial activity against Escherichia coli ATCC 25922 = CCM 3954 assessed as inhibition of bacterial growth incubated for 24 hrs by microdilution assay; type: functional
Pseudomonas aeruginosa = test: Antibacterial activity against Pseudomonas aeruginosa ATCC 27853 = CCM 3955 assessed as inhibition of bacterial growth incubated for 24 hrs by microdilution assay; type: functional
[3] = Hemolytic activity in human RBC assessed as haemoglobin release measured after 3 hr; type: toxicity, cell-based, Erythrocyte; settings: red blood cells (erythrocytes)
Enterococcus faecalis = test: Antibacterial activity against Enterococcus faecalis ATCC 29212 = CCM 4224 assessed as inhibition of bacterial growth incubated for 24 hrs by microdilution assay; type: functional
Staphylococcus aureus [4] = test: Antibacterial activity against Staphylococcus aureus ATCC 29213 = CCM 4223 assessed as inhibition of bacterial growth incubated for 24 hrs in presence of BSA by microdilution assay; type: functional
Escherichia coli [5] = test: Antibacterial activity against Escherichia coli ATCC 25922 = CCM 3954 assessed as inhibition of bacterial growth incubated for 24 hrs in presence of BSA by microdilution assay; type: functional

CCCCCCCCCOP(=O)(CCN(CCCN)CCCN)OCCc1ccccc1.Cl.Cl.Cl (configuration not stated)
MIC (Staphylococcus aureus [1]): 16 µg/mL
MIC (Escherichia coli [2]): 32 µg/mL
MIC (Pseudomonas aeruginosa): 16 µg/mL
HC50 at 3 h [3]: 58.7 µg/mL
MIC (Enterococcus faecalis): 32 µg/mL

CCCCCCCCCOP(=O)(CCN(CCCN)CCCN)OCCc1ccc([N+](=O)[O-])cc1.Cl.Cl.Cl (configuration not stated)
MIC (Staphylococcus aureus [1]): 8 µg/mL
MIC (Escherichia coli [2]): 16 µg/mL
MIC (Pseudomonas aeruginosa): 8 µg/mL
MIC (Staphylococcus aureus [4]): 64 µg/mL
MIC (Escherichia coli [5]): 128 µg/mL
HC50 at 3 h [3]: 50 µg/mL
MIC (Enterococcus faecalis): 16 µg/mL

CCCCCCOP(=O)(CCN(CCCN)CCCN)OCCc1cccc2ccccc12.Cl.Cl.Cl (configuration not stated)
MIC (Staphylococcus aureus [1]): 64 µg/mL
MIC (Escherichia coli [2]): > 128 µg/mL
MIC (Pseudomonas aeruginosa): 64 µg/mL
MIC (Staphylococcus aureus [4]): > 128 µg/mL
MIC (Escherichia coli [5]): > 131 µg/mL
HC50 at 3 h [3]: > 100 µg/mL
MIC (Enterococcus faecalis): 64 µg/mL

CCCCCCCCCOP(=O)(CCN(CCCN)CCCN)OCCc1ccc(N)cc1.Cl.Cl.Cl.Cl (configuration not stated)
MIC (Staphylococcus aureus [1]): 64 µg/mL
MIC (Escherichia coli [2]): 128 µg/mL
MIC (Pseudomonas aeruginosa): 128 µg/mL
MIC (Staphylococcus aureus [4]): > 128 µg/mL
MIC (Escherichia coli [5]): > 128 µg/mL
HC50 at 3 h [3]: > 100 µg/mL
MIC (Enterococcus faecalis): 128 µg/mL

CCCCCCCCCCCCCCCCOP(=O)(CCN(CCCN)CCCN)OCC.Cl.Cl.Cl (configuration not stated)
MIC (Staphylococcus aureus [1]): 2 µg/mL
MIC (Escherichia coli [2]): 2 µg/mL
MIC (Pseudomonas aeruginosa): 4 µg/mL
MIC (Staphylococcus aureus [4]): 128 µg/mL
MIC (Escherichia coli [5]): > 130 µg/mL
HC50 at 3 h [3]: 9.4 µg/mL
MIC (Enterococcus faecalis): 2 µg/mL

CCCCCCCCCCCCCCOP(=O)(CCN(CCCN)CCCN)OCC.Cl.Cl.Cl (configuration not stated)
MIC (Staphylococcus aureus [1]): 4 µg/mL
MIC (Escherichia coli [2]): 4 µg/mL
MIC (Pseudomonas aeruginosa): 4 µg/mL
MIC (Staphylococcus aureus [4]): > 128 µg/mL
MIC (Escherichia coli [5]): > 128 µg/mL
HC50 at 3 h [3]: 12.2 µg/mL
MIC (Enterococcus faecalis): 4 µg/mL

CCCCCCCCCCCCOP(=O)(CCN(CCCN)CCCN)OCCCCCCCCCCCC.Cl.Cl.Cl
MIC (Staphylococcus aureus [1]): 100 µg/mL
MIC (Escherichia coli [2]): 100 µg/mL
MIC (Pseudomonas aeruginosa): 100 µg/mL
HC50 at 3 h [3]: 11.3 µg/mL
MIC (Enterococcus faecalis): 25 µg/mL

CCCCCCCCCCCCOP(=O)(CCN(CCCN)CCCN)OCCc1c[nH]c2ccccc12.Cl.Cl.Cl.Cl (configuration not stated)
MIC (Staphylococcus aureus [1]): 2 µg/mL
MIC (Escherichia coli [2]): 4 µg/mL
MIC (Pseudomonas aeruginosa): 8 µg/mL
HC50 at 3 h [3]: 12.1 µg/mL
MIC (Enterococcus faecalis): 4 µg/mL

CCCCCCCCCCCCCCCOP(=O)(CCN(CCCN)CCCN)OCC.Cl.Cl.Cl (configuration not stated)
MIC (Staphylococcus aureus [1]): 2 µg/mL
MIC (Escherichia coli [2]): 1 µg/mL
MIC (Pseudomonas aeruginosa): 2 µg/mL
MIC (Staphylococcus aureus [4]): > 128 µg/mL
MIC (Escherichia coli [5]): > 129 µg/mL
HC50 at 3 h [3]: 6.9 µg/mL
MIC (Enterococcus faecalis): 2 µg/mL

CCCCCCCCCOP(=O)(CCN(CCCN)CCCN)OCCc1ccc(Cl)cc1.Cl.Cl.Cl (configuration not stated)
MIC (Staphylococcus aureus [1]): 2 µg/mL
MIC (Escherichia coli [2]): 2 µg/mL
MIC (Pseudomonas aeruginosa): 8 µg/mL
MIC (Staphylococcus aureus [4]): 64 µg/mL
MIC (Escherichia coli [5]): 64 µg/mL
HC50 at 3 h [3]: 17.3 µg/mL
MIC (Enterococcus faecalis): 2 µg/mL

CCCCCCCCCOP(=O)(CCN(CCCN)CCCN)OCCc1cccc2ccccc12.Cl.Cl.Cl (configuration not stated)
MIC (Staphylococcus aureus [1]): 2 µg/mL
MIC (Escherichia coli [2]): 4 µg/mL
MIC (Pseudomonas aeruginosa): 4 µg/mL
MIC (Staphylococcus aureus [4]): 64 µg/mL
MIC (Escherichia coli [5]): 64 µg/mL
HC50 at 3 h [3]: 12.8 µg/mL
MIC (Enterococcus faecalis): 2 µg/mL

CCCCCCCCCCCCCCOP(=O)(CCN(CCCN)CCCN)OCCc1c[nH]c2ccccc12.Cl.Cl.Cl.Cl (configuration not stated)
MIC (Staphylococcus aureus [1]): 2 µg/mL
MIC (Escherichia coli [2]): 2 µg/mL
MIC (Pseudomonas aeruginosa): 2 µg/mL
HC50 at 3 h [3]: 12.4 µg/mL
MIC (Enterococcus faecalis): 4 µg/mL

CCCCCCCCCOP(=O)(CCN(CCCN)CCCN)OCCOCc1ccccc1.Cl.Cl.Cl (configuration not stated)
MIC (Staphylococcus aureus [1]): 32 µg/mL
MIC (Escherichia coli [2]): 64 µg/mL
MIC (Pseudomonas aeruginosa): 64 µg/mL
MIC (Staphylococcus aureus [4]): > 128 µg/mL
MIC (Escherichia coli [5]): > 128 µg/mL
HC50 at 3 h [3]: 79.8 µg/mL
MIC (Enterococcus faecalis): 32 µg/mL

CCCCCCCCOP(=O)(CCN(CCCN)CCCN)OCCOCc1ccccc1.Cl.Cl.Cl (configuration not stated)
MIC (Staphylococcus aureus [1]): 128 µg/mL
MIC (Escherichia coli [2]): > 128 µg/mL
MIC (Pseudomonas aeruginosa): > 128 µg/mL
MIC (Staphylococcus aureus [4]): > 128 µg/mL
MIC (Escherichia coli [5]): > 132 µg/mL
HC50 at 3 h [3]: > 100 µg/mL
MIC (Enterococcus faecalis): 128 µg/mL

CCCCCCCCCOP(=O)(CCN(CCCN)CCCN)OCCOCc1ccc(OC)cc1.Cl.Cl.Cl (configuration not stated)
MIC (Staphylococcus aureus [1]): 16 µg/mL
MIC (Escherichia coli [2]): 32 µg/mL
MIC (Pseudomonas aeruginosa): 16 µg/mL
MIC (Staphylococcus aureus [4]): 128 µg/mL
MIC (Escherichia coli [5]): > 133 µg/mL
HC50 at 3 h [3]: 55 µg/mL
MIC (Enterococcus faecalis): 16 µg/mL
